{"source": "patent US20250163104A1", "about": "“MACROCYCLIC IMMUNOMODULATORS” (priority 2021, published 2025)", "note": "Where a SMILES comes first, the peptide text is derived from it. Bridges are numbered along the chain shown (N, C = ends). [ ]: non-standard residue; d: D form. The star is where a group is joined. ξ: configuration not given here. Phe(4-COOH) = N[C@@H](Cc1ccc(C(=O)O)cc1)C(=O)O; Bip = N[C@@H](Cc1ccc(-c2ccccc2)cc1)C(=O)O; Phe(3-Cl) = N[C@@H](Cc1cccc(Cl)c1)C(=O)O; Phe(4-CN) = N#Cc1ccc(C[C@H](N)C(=O)O)cc1; Phe(3-Me) = Cc1cccc(C[C@H](N)C(=O)O)c1; ξW = NC(Cc1c[nH]c2ccccc12)C(=O)O; 4Pal = N[C@@H](Cc1ccncc1)C(=O)O; Cha = N[C@@H](CC1CCCCC1)C(=O)O; Cit = NC(=O)NCCC[C@H](N)C(=O)O; Ile(3ξ) = CCC(C)[C@H](N)C(=O)O; Hpra = C#CCC[C@H](N)C(=O)O; Carboxymethyl = O=C(O)C*; Orn = NCCC[C@H](N)C(=O)O; Dab = NCC[C@H](N)C(=O)O; Dap = NC[C@H](N)C(=O)O"}
{"molecular_target": "T1, human PD-1 / PD-L1-Ig binding on Jurkat cell line over-expressing human PD-1 (Jurkat-PD-1) (Homo sapiens, UniProt Q15116)", "T1 construct": "expressed in transfected cells; host or cells: Jurkat", "T1 sequence (Q15116 25-288)": "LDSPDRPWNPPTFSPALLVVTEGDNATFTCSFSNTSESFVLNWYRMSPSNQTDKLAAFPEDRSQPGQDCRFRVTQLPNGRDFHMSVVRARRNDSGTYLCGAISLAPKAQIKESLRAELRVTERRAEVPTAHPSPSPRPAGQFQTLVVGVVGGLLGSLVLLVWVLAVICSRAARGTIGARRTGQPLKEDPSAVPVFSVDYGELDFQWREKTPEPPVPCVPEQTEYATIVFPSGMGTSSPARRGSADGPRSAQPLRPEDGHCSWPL", "test": "Jurkat-PD-1 Cell Binding High-Content Screening Assay (CBA)", "format": "cell-based", "conditions": "Jurkat HPD1_PDL1 IC50, Jurkat-PD-1 cells, PE-labeled PD-L1-Ig 20 nM final", "summary_of_the_method": "(§1)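 Jurkat cells over-expressing human PD-1, in DMEM/10% FCS, pre-incubated with compound 2 h at 37° C. PE-labeled human PD-L1-Ig (20 nM final) added for 1 h; cells fixed in paraformaldehyde with Hoechst 33342 nuclear stain, washed, and bound fluorescence quantified by high-content imaging.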", "units": {"IC50": "µM"}}
{"compound": "CC[C@H](C)[C@@H]1NC(=O)[C@H](Cc2ccc(-c3ccccc3)cc2)NC(=O)[C@H](C(C)C)NC(=O)[C@H](Cc2cccc(C)c2)NC(=O)[C@H](CC(=O)O)NC(=O)[C@H](Cc2ccc(OCC(=O)O)cc2)NC(=O)[C@H](Cc2ccncc2)NC(=O)CSC[C@@H](C(=O)N[C@@H](C)C(N)=O)NC(=O)[C@H]([C@@H](C)O)NC(=O)[C@H](C(C)C)NC(=O)[C@H](CC(C)C)NC(=O)[C@H](CCN)NC(=O)[C@@H](CC(C)C)NC(=O)[C@H](CCCN)NC1=O", "note": "[Compound 1186]", "IC50": 0.0058}
{"compound": "CC[C@H](C)[C@@H]1NC(=O)[C@H](Cc2ccc(-c3ccccc3)cc2)NC(=O)[C@H](C(C)C)NC(=O)[C@H](Cc2cccc(OC)c2)NC(=O)[C@H](CC(=O)O)NC(=O)[C@H](Cc2ccc(OCC(=O)O)cc2)NC(=O)[C@H](Cc2ccncc2)NC(=O)CSC[C@@H](C(=O)N[C@@H](C)C(N)=O)NC(=O)[C@H]([C@@H](C)O)NC(=O)[C@H](C(C)C)NC(=O)[C@H](CC(C)C)NC(=O)[C@H](CCN)NC(=O)[C@@H](CC(C)C)NC(=O)[C@H](CCCN)NC1=O", "note": "[Compound 1187]", "IC50": 0.0107}
{"molecular_target": "T1, human PD-1 / PD-L1-Ig binding on Jurkat cell line over-expressing human PD-1 (Jurkat-PD-1)", "test": "Jurkat-PD-1 Cell Binding High-Content Screening Assay (CBA)", "format": "cell-based", "conditions": "Jurkat-PD-1 cells, PE-labeled PD-L1-Ig 20 nM final; read-out: Jurkat HPD1_PDL1 IC50", "summary_of_the_method": "as §1", "units": {"IC50": "µM"}}
{"compound": "CC(C)C[C@@H]1NC(=O)C(Cc2c[nH]c3ccccc23)NC(=O)[C@H](CC(=O)O)NC(=O)[C@H](Cc2ccc(O)cc2)NC(=O)[C@H](Cc2ccccc2)NC(=O)CSC[C@@H](C(=O)N[C@@H](C)C(N)=O)NC(=O)[C@H](CO)NC(=O)[C@H](C(C)C)NC(=O)[C@H](CC(C)C)NC(=O)[C@H](CC(N)=O)NC(=O)[C@@H](CC(C)C)NC(=O)[C@H](CN)NC(=O)[C@H](CCCNC(N)=O)NC(=O)[C@H](Cc2ccc(-c3ccccc3)cc2)NC1=O", "note": "(stereo partly drawn) [Compound 1217] ({CH2CO}-FYD[ξW]L[Bip][Cit][Dap][dL]NLVSCA-NH2; thioether N-14)", "IC50": 0.0254}
{"compound": "CC(C)C[C@@H]1NC(=O)[C@H](CCN)NC(=O)[C@@H](CC(C)C)NC(=O)[C@H](CCCN)NC(=O)[C@H](C(C)C)NC(=O)[C@H](Cc2ccc(-c3ccccc3)cc2)NC(=O)[C@H](C(C)C)NC(=O)[C@H](Cc2c[nH]c3ccccc23)NC(=O)[C@H](CC(=O)O)NC(=O)[C@H](Cc2ccc(OCC(=O)O)cc2)NC(=O)[C@H](Cc2ccncc2)NC(=O)CSC[C@@H](C(=O)N[C@@H](C)C(N)=O)NC(=O)[C@H]([C@@H](C)O)NC(=O)[C@H](C(C)C)NC1=O", "note": "[Compound 1051] ({CH2CO}-[4Pal]Y(Carboxymethyl)DWV[Bip]V[Orn][dL][Dab]LVTCA-NH2; thioether N-14)", "IC50": 0.0052}
{"compound": "CC(C)C[C@H]1NC(=O)[C@H](CCCN)NC(=O)[C@H](CCCNC(N)=O)NC(=O)[C@H](Cc2ccc(-c3ccccc3)cc2)NC(=O)[C@H](C(C)C)NC(=O)[C@H](Cc2c[nH]c3ccccc23)NC(=O)[C@H](CC(=O)O)NC(=O)[C@H](Cc2ccc(C#N)cc2)NC(=O)[C@H](CN)NC(=O)CSC[C@@H](C(=O)N[C@@H](C)C(N)=O)NC(=O)[C@H]([C@@H](C)O)NC(=O)[C@H](C(C)C)NC(=O)[C@H](CC2CCCCC2)NC(=O)[C@H](CCN)NC1=O", "note": "[Compound 2101] ({CH2CO}-[Dap][Phe(4-CN)]DWV[Bip][Cit][Orn][dL][Dab][Cha]VTCA-NH2; thioether N-14)", "IC50": 0.0066}
{"compound": "CC(C)C[C@H]1NC(=O)[C@H](CCCN)NC(=O)[C@H](CCC(=O)O)NC(=O)[C@H](Cc2ccc(-c3ccccc3)cc2)NC(=O)[C@H](C(C)C)NC(=O)[C@H](Cc2cccc(Cl)c2)NC(=O)[C@H](CC(=O)O)NC(=O)[C@H](Cc2ccc(O)cc2)NC(=O)[C@H](CC(N)=O)NC(=O)CSC[C@@H](C(=O)N[C@@H](C)C(N)=O)NC(=O)[C@H]([C@@H](C)O)NC(=O)[C@H](C(C)C)NC(=O)[C@H](CC2CCCCC2)NC(=O)[C@H](CCN)NC1=O", "note": "[Compound 1494] ({CH2CO}-NYD[Phe(3-Cl)]V[Bip]E[Orn][dL][Dab][Cha]VTCA-NH2; thioether N-14)", "IC50": 0.0138}
{"compound": "CCC(C)[C@@H]1NC(=O)[C@H](Cc2ccc(-c3ccccc3)cc2)NC(=O)[C@H](C(C)C)NC(=O)[C@H](Cc2cccc(C)c2)NC(=O)[C@H](CC(=O)O)NC(=O)[C@H](Cc2ccc(C(=O)O)cc2)NC(=O)[C@H](Cc2ccncc2)NC(=O)CSC[C@@H](C(N)=O)NC(=O)[C@H](CO)NC(=O)[C@H](C(C)C)NC(=O)[C@H](CC2CCCCC2)NC(=O)[C@H](CCN)NC(=O)[C@@H](CC(C)C)NC(=O)[C@H](CCCN)NC1=O", "note": "(stereo partly drawn) [Compound 2276] ({CH2CO}-[4Pal][Phe(4-COOH)]D[Phe(3-Me)]V[Bip][Ile(3ξ)][Orn][dL][Dab][Cha]VSC-NH2; thioether N-14)", "IC50": 0.0266}
{"compound": "CC(C)C[C@@H]1NC(=O)[C@H](Cc2c[nH]c3ccccc23)NC(=O)[C@H](CC(=O)O)NC(=O)[C@H](Cc2ccc(O)cc2)NC(=O)[C@H](Cc2ccccc2)NC(=O)CSC[C@@H](C(=O)NCC(N)=O)NC(=O)[C@H]([C@@H](C)O)NC(=O)[C@H](C(C)C)NC(=O)[C@H](CC(C)C)NC(=O)[C@H](CCN)NC(=O)[C@@H](C)NC(=O)[C@H](CN)NC(=O)[C@H](C(C)C)NC(=O)[C@H](Cc2ccc(-c3ccccc3)cc2)NC1=O", "note": "[Compound 1078] ({CH2CO}-FYDWL[Bip]V[Dap][dA][Dab]LVTCG-NH2; thioether N-14)", "IC50": 0.0402}
{"compound": "CC(C)C[C@H]1NC(=O)[C@H](CCCN)NC(=O)[C@H](CCCCN)NC(=O)[C@H](Cc2ccc(-c3ccccc3)cc2)NC(=O)[C@H](C(C)C)NC(=O)[C@H](Cc2c[nH]c3ccccc23)NC(=O)[C@H](CC(=O)O)NC(=O)[C@H](Cc2ccncc2)NC(=O)[C@H](CN)NC(=O)CSC[C@@H](C(=O)N[C@@H](CCCN)C(N)=O)NC(=O)[C@H]([C@@H](C)O)NC(=O)[C@H](C(C)C)NC(=O)[C@H](CC2CCCCC2)NC(=O)[C@H](CCN)NC1=O", "note": "[Compound 2250] ({CH2CO}-[Dap][4Pal]DWV[Bip]K[Orn][dL][Dab][Cha]VTC[Orn]-NH2; thioether N-14)", "IC50": 0.0438}
{"compound": "CC[C@H](C)[C@@H]1NC(=O)[C@H](Cc2ccc(-c3ccccc3)cc2)NC(=O)[C@H](C(C)C)NC(=O)[C@H](Cc2c[nH]c3ccccc23)NC(=O)[C@H](CC(=O)O)NC(=O)[C@H](Cc2ccc(O)cc2)NC(=O)[C@H](Cc2ccc(OCC(=O)O)cc2)NC(=O)CSC[C@@H](C(=O)N[C@@H](C)C(N)=O)NC(=O)[C@H]([C@@H](C)O)NC(=O)[C@H](C(C)C)NC(=O)[C@H](CC(C)C)NC(=O)[C@H](CCCNC(=N)N)NC(=O)[C@@H](CC(C)C)NC(=O)[C@H](CCCN)NC1=O", "note": "[Compound 1142] ({CH2CO}-Y(Carboxymethyl)YDWV[Bip]I[Orn][dL]RLVTCA-NH2; thioether N-14)", "IC50": 0.0196}
{"compound": "CC(C)C[C@@H]1NC(=O)[C@H](Cc2c[nH]c3ccccc23)NC(=O)[C@H](CC(=O)O)NC(=O)[C@H](Cc2ccc(O)cc2)NC(=O)[C@H](Cc2ccccc2)NC(=O)CSC[C@@H](C(=O)N[C@@H](C)C(N)=O)NC(=O)[C@H](CO)NC(=O)[C@H](C(C)C)NC(=O)[C@H](CC(C)C)NC(=O)[C@H](CCN)NC(=O)[C@@H](C)NC(=O)[C@H](CCCN)NC(=O)[C@H](C(C)C)NC(=O)[C@H](Cc2ccc(-c3ccccc3)cc2)NC1=O", "note": "[Compound 1095] ({CH2CO}-FYDWL[Bip]V[Orn][dA][Dab]LVSCA-NH2; thioether N-14)", "IC50": 0.146}
{"compound": "CC(C)C[C@@H]1NC(=O)[C@H](CCN)NC(=O)[C@@H](CC(C)C)NC(=O)[C@H](CCN)NC(=O)[C@H](C(C)C)NC(=O)[C@H](Cc2ccc(-c3ccccc3)cc2)NC(=O)[C@H](C(C)C)NC(=O)[C@H](Cc2c[nH]c3ccccc23)NC(=O)[C@H](CC(N)=O)NC(=O)[C@H](Cc2ccc(O)cc2)NC(=O)[C@H](CC(N)=O)NC(=O)CSC[C@@H](C(=O)NCC(N)=O)NC(=O)[C@H](CO)NC(=O)[C@H](C(C)C)NC1=O", "note": "[Compound 1083] ({CH2CO}-NYNWV[Bip]V[Dab][dL][Dab]LVSCG-NH2; thioether N-14)", "IC50": 0.0168}
{"compound": "Cc1cccc(C[C@@H]2NC(=O)[C@H](CC(=O)O)NC(=O)[C@H](Cc3ccc(C(=O)O)cc3)NC(=O)[C@H](Cc3ccncc3)NC(=O)CSC[C@@H](C(=O)N[C@@H](C)C(N)=O)NC(=O)[C@H]([C@@H](C)O)NC(=O)[C@H](C(C)C)NC(=O)[C@H](CC(C)C)NC(=O)[C@H](CCN)NC(=O)[C@@H](CC(C)C)NC(=O)[C@H](CCCN)NC(=O)[C@H](C(C)C)NC(=O)[C@H](Cc3ccc(-c4ccccc4)cc3)NC(=O)[C@H](C(C)C)NC2=O)c1", "note": "[Compound 1182] ({CH2CO}-[4Pal][Phe(4-COOH)]D[Phe(3-Me)]V[Bip]V[Orn][dL][Dab]LVTCA-NH2; thioether N-14)", "IC50": 0.0082}
{"compound": "CC(C)C[C@@H]1NC(=O)[C@H](CCN)NC(=O)[C@@H](CC(C)C)NC(=O)[C@H](CCN)NC(=O)[C@H](CCCNC(N)=O)NC(=O)[C@H](Cc2ccc(-c3ccccc3)cc2)NC(=O)[C@H](C(C)C)NC(=O)[C@H](Cc2c[nH]c3ccccc23)NC(=O)[C@H](CC(=O)O)NC(=O)[C@H](Cc2ccc(O)cc2)NC(=O)[C@H](CC(N)=O)NC(=O)CSC[C@@H](C(=O)NCC(N)=O)NC(=O)[C@H]([C@@H](C)O)NC(=O)[C@H](C(C)C)NC1=O", "note": "[Compound 1117] ({CH2CO}-NYDWV[Bip][Cit][Dab][dL][Dab]LVTCG-NH2; thioether N-14)", "IC50": 0.0393}
{"compound": "C#CCC[C@@H]1NC(=O)[C@H](CC2CCCCC2)NC(=O)[C@H](CCN)NC(=O)[C@@H](CC(C)C)NC(=O)[C@H](CCCN)NC(=O)[C@H](C(C)C)NC(=O)[C@H](Cc2ccc(-c3ccccc3)cc2)NC(=O)[C@H](C(C)C)NC(=O)[C@H](Cc2cccc(C)c2)NC(=O)[C@H](CC(=O)O)NC(=O)[C@H](Cc2ccc(OCC(=O)O)cc2)NC(=O)[C@H](CN)NC(=O)CSC[C@@H](C(N)=O)NC(=O)[C@H]([C@@H](C)O)NC1=O", "note": "[Compound 2012] ({CH2CO}-[Dap]Y(Carboxymethyl)D[Phe(3-Me)]V[Bip]V[Orn][dL][Dab][Cha][Hpra]TC-NH2; thioether N-14)", "IC50": 0.0158}
